Values quoted from earlier work, collected in patent publication US11197842B2 (BIOGEN MA INC., priority 2014, dated 2021).
Counter-ions that a name gives are not always drawn.

Conditions: species not stated

half-life of MMF: approximately 1 hour
SMILES: COC(=O)/C=C/C(=O)O [MMF, monomethyl fumarate]
